In patent US10377791B2, “Therapeutically active estratrienthiazole derivatives as inhibitors of 17 B-hydroxysteroid dehydrogenase, type 1” (FORENDO PHARMA LTD, priority 2013, dated 2019):
Where a name gives a salt, the structure may show the parent alone.

Columns and labels:
[1] = human, tissue homogenate, 1 h
Method: The in vitro metabolic stability of the compounds of the invention was determined for exemplified compounds using human liver microsome and homogenate incubations. The incubation time points used with or without appropriate cofactors were 0 min and 60 min. Samples were collected at both time points and substrates were detected using LC/PDA/TOF-MS.

[2] = target: T1, recombinant human 17β-HSD1 (Homo sapiens, UniProt P14061); assay: Inhibition of recombinant human 17β-HSD1; format: biochemical; conditions: inhibitor at 1 μM; 30 nM estrone, 1 mM NADPH, 30 min at RT; read-out: 17β-HDS1 Inhibition % at 1 μM
T1 construct: made in house; host or cells: Sd9 (Sf9) insect cells, baculovirus (Bac to Bac Expression System)
T1 sequence (P14061 1-328): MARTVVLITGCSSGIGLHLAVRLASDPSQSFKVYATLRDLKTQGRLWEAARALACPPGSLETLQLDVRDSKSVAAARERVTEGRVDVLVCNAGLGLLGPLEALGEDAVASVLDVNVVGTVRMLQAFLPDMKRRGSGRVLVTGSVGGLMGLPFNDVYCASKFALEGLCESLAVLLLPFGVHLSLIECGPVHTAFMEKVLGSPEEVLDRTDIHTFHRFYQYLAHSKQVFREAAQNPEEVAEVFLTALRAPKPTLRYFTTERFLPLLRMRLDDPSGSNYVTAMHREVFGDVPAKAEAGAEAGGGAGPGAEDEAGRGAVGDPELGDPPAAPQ
In short: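 Microsomal enzyme from baculovirus-infected insect cells (1 μg/ml) incubated 30 min at RT in 20 mM KH2PO4 pH 7.4 with 30 nM ³H-estrone and 1 mM NADPH, inhibitor at 1 μM or 0.1 μM, 1% DMSO. TCA-stopped; estrone/estradiol separated by radio-HPLC; % inhibition = 100 − % conversion.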

[3] = target: T2, recombinant human 17β-HSD2 (Homo sapiens, UniProt P37059); assay: Inhibition of recombinant human 17β-HSD2; format: biochemical; conditions: inhibitor at 1 μM; 50 nM estradiol, 1 mM NADH, 30 min at RT; read-out: 17β-HSD2 Inhibition % at 1 μM
T2 construct: made in house; host or cells: Sd9 (Sf9) insect cells, baculovirus (Bac to Bac Expression System)
T2 sequence (P37059 1-387): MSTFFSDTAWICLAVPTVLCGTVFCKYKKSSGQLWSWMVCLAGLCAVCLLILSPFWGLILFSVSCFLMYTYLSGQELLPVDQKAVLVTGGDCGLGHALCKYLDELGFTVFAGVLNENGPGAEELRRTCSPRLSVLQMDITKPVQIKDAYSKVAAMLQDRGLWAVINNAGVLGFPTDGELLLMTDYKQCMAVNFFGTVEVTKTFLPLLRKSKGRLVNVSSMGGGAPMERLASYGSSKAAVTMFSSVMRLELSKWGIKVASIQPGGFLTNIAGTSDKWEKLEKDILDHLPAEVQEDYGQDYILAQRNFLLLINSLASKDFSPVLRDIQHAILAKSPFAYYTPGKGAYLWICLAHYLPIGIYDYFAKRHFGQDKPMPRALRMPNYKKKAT
In short: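 Membrane extract of baculovirus-expressed enzyme in Sf9 cells (4 μg/ml) incubated in 20 mM KH2PO4 pH 8.5 with 50 nM estradiol (³H-tracer) and 1 mM NADH, 30 min at RT, 1% DMSO, inhibitor at 1 μM or 0.1 μM. TCA-stopped; estradiol-to-estrone conversion by radio-HPLC; % inhibition = 100 − % conversion.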

Structure (SMILES)	In vitro metabolic stability, % remaining after 60 min [1] [%]	inhibition at 1 µM [2] [%]	inhibition at 1 µM [3] [%]
Cc1cnc(NC(=O)CC[C@@H]2CC(=O)[C@@]3(C)CCC4c5cc(Br)c(O)c(Br)c5CCC4C23)s1 (stereo partly drawn) [Compound 58, 3-((13S,15R)-2,4-dibromo-3-hydroxy-13-methyl-17-oxo-7,8,9,11,12,13,14,15,16,17-decahydro-6H-cyclopenta[a]phenanthren-15-yl)-N-(5-methylthiazol-2-yl)propanamide]	81	95	5
Cc1cnc(NC(=O)CC[C@@H]2CC(=O)[C@@]3(C)CCC4c5ccc(OS(=O)(=O)O)cc5CCC4C23)s1 (stereo partly drawn) [Compound 5, Sulphuric acid mono-{(13S,15R)-13-methyl-15-[2-(5-methylthiazol-2-ylcarbamoyl)-ethyl]-17-oxo-7,8,9,11,12,13,14,15,16,17-decahydro-6H-cyclopenta[a]phenanthren-3-yl} ester triethylamine salt]	50	92	4
Cc1cnc(NC(=O)CC[C@@H]2CC(=O)[C@@]3(C)CCC4c5ccc(OS(C)(=O)=O)cc5CCC4C23)s1 (stereo partly drawn) [Compound 2, Methanesulphonic acid (13S,15R)-13-methyl-15-[2-(5-methylthiazol-2-ylcarbamoyl)-ethyl]-17-oxo-7,8,9,11,12,13,14,15,16,17-decahydro-6H-cyclopenta[a]phenanthren-3-yl ester]	25	95	11
Cc1cnc(NC(=O)CC[C@@H]2CC(=O)[C@@]3(C)CCC4c5cc6ncoc6cc5CCC4C23)s1 (stereo partly drawn) [Compound 47, 3-((3R,12aS)-12a-methyl-1-oxo-2,3,3a,3b,4,5,10b,11,12,12a-decahydro-1H-cyclopenta[7,8]phenanthro[3,2-d]oxazol-3-yl)-N-(5-methylthiazol-2-yl)propanamide]	48	87	2
Cc1cnc(NC(=O)CC[C@@H]2CC(=O)[C@@]3(C)CCC4c5ccccc5CCC4C23)s1 (stereo partly drawn) [Compound 83, 3-((13S,15R)-13-methyl-17-oxo-7,8,9,11,12,13,14,15,16,17-decahydro-6H-cyclopenta[a]phenanthren-15-yl)-N-(5-methylthiazol-2-yl)propanamide]	74	92	1
